# Values quoted from earlier work as cited in patent US20130197188A1 (priority 2010, published 2013).
# What was measured:
# [1] = tested on: patients with chronic congestive heart failure; conditions: 15 ng/kg/min, 10-hour infusion; loss of action during infusion
# [2] = tested on: patients with acute decompensated heart failure (ADHF)
# [3] = tested on: patients with moderate asthma affliction; conditions: brief infusion; healthy and diseased subjects
substance,measurement,setting,value
urodilatin,central venous pressure (CVP),[1],increases slightly already after 5 hours of infusion
same,urine flow,[1],loss of action after 8 hours of infusion
same,changes of the baseline in pulmonary capillary wedge pressure (PCWP),"[2]; 15+30 ng/kg/min, compared with the placebo group, FIG. 4A",significant reductions
same,changes of the cardiac index (CI),"[2]; 15 and 30 ng/kg/min, FIG. 4C",significant increase
same,persistence of the effect on PCWP and CI (rebound),"[2]; during infusion, slight increase of PCWP and partial drop of CI",slightly reversed after 6 to 8 hours
same,"symptoms, morbidity and mortality",[2]; for all doses,significantly improved
same,therapeutic window (dose),[2]; intermediate dose applied,about 15 ng/kg/min
same,effect on bronchoconstriction,[3],biologically relevant effectiveness
